Assays:
Type in all cases: cell-based
[1] = system: p15 protein; assay: Evaluation of p15 induction activity (Western blotting); conditions: test substance 0.1 μM, 24 hrs, ACHN cells or HT-29 cells, compared to DMSO, n=2
Method in brief: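 p15 protein quantified by densitometry of anti-p15 Western blots (10 μg protein per lane, mean of n=2). Samples came from HT-29 or ACHN cells given 0.1 μM compound for 24 h after 24 h plating, with DMSO as control.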

[2] = system: p27 protein; assay: p27 protein induction test (Western blotting); conditions: test substance (0.1 1M), 24 hrs, ACHN cells or HT-29 cells, compared to DMSO, n=2
Method in brief: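 ACHN or HT-29 cells grown 24 h, then treated with test substance at […] (DMSO) for 24 h. Lysates normalised by protein content and probed by Western blot with anti-p27 antibody. Band density quantified by densitometer against DMSO control, n=2 averaged.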

[3] = system: colorectal cancer cell line HT-29 cells; assay: Growth inhibitory effect against cancer cell lines (3H-thymidine uptake), HT-29; conditions: Homo sapiens, HT-29, inhibition of 3H-thymidine uptake; test substance 18 hrs, then 3H-thymidine 6 hrs; triplicate
Method in brief: (§1)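 Cells seeded at 1.0×10^4/well, grown 24 hrs, then exposed to compound in DMSO for 18 hrs before 6 hrs pulse with ^3H-thymidine (0.25 μCi/well). Harvested cell-incorporated radioactivity counted; IC50 is the concentration halving uptake versus DMSO control, triplicate.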

[4] = system: Renal cancer cell line ACHN cell; assay: Growth inhibitory effect against cancer cell lines (3H-thymidine uptake), ACHN; conditions: Homo sapiens, ACHN
Method in brief: as §1

| Compound | IC50 [3] | IC50 [4] | fold induction at 0.1 µM [1] | fold induction at 0.1 µM [2] |
| --- | --- | --- | --- | --- |
| Cc1c(=O)n(C)c(Nc2ccc(I)cc2F)c2c(=O)n(C3CC3)c(=O)n(-c3ccc4c(c3)NC(=O)C4)c12 [Example 4-88] | < 10 nM | < 10 nM | ≥ 1.5 | ≥ 1.5 |
| CCS(=O)(=O)c1cccc(-n2c(=O)n(C3CC3)c(=O)c3c(Nc4ccc(Br)cc4F)n(C)c(=O)c(C)c32)c1 [Example 4-10] | 10 to 100 nM | 100 to 1000 nM | ≥ 1.5 | ≥ 1.5 |
| Cc1c(=O)n(C)c(Nc2ccc(I)cc2F)c2c(=O)n(C3CC3)c(=O)n(-c3cccc(NC4=NCCO4)c3)c12 [Example 4-110] | < 10 nM | 10 to 100 nM | ≥ 1.5 | ≥ 1.5 |
| Cc1c(=O)n(C)c(Nc2ccc(I)cc2F)c2c(=O)n(C3CC3)c(=O)n(-c3cccc(S(C)(=O)=O)c3)c12 [Example 4-55] | < 10 nM | 10 to 100 nM | ≥ 1.5 | ≥ 1.5 |
| CCn1c(=O)c2c(Nc3ccc(I)cc3F)n(C)c(=O)c(C)c2n(-c2cccc(NC(C)=O)c2)c1=O [Example 4-21] | < 10 nM | 10 to 100 nM | ≥ 1.5 | ≥ 1.5 |
| Cc1c(=O)n(C)c(Nc2ccc(Br)cc2F)c2c(=O)n(C3CC3)c(=O)n(-c3cccc(NS(C)(=O)=O)c3)c12 [Example 3-4] | < 10 nM | 10 to 100 nM | ≥ 1.5 | ≥ 1.5 |
| C#Cc1ccc(Nc2c3c(=O)n(C4CC4)c(=O)n(-c4ccc(NS(C)(=O)=O)cc4)c3c(C)c(=O)n2C)c(F)c1 [Example 4-76] | < 10 nM | 10 to 100 nM | ≥ 1.5 | ≥ 1.5 |
| CSc1ccc(Nc2c3c(=O)n(C4CC4)c(=O)n(-c4cccc(NS(N)(=O)=O)c4)c3c(C)c(=O)n2C)c(F)c1 [Example 4-120] | < 10 nM | 10 to 100 nM | ≥ 1.5 | ≥ 1.5 |
| Cc1c(=O)n(C)c(Nc2ccc(I)cc2F)c2c(=O)n(C3CC3)c(=O)n(-c3ccc4c(c3)NC(=O)CC4)c12 [Example 4-123] | < 10 nM | 100 to 1000 nM | ≥ 1.5 | ≥ 1.5 |
| CC(=O)Nc1cccc(-n2c(=O)n(C3CC3)c(=O)c3c(Nc4ccc(N(C)C)cc4F)n(C)c(=O)c(C)c32)c1 [Example 4-61] | 10 to 100 nM | 10 to 100 nM | ≥ 1.5 | ≥ 1.5 |
| Cc1c(=O)n(C)c(Nc2ccc(I)cc2F)c2c(=O)n(C3CC3)c(=O)n(-c3ccc(F)c(NS(C)(=O)=O)c3)c12 [Example 4-101] | < 10 nM | 10 to 100 nM | ≥ 1.5 | ≥ 1.5 |
| CCc1ccc(Nc2c3c(=O)n(C)c(=O)n(-c4cccc(NC(C)=O)c4)c3c(C)c(=O)n2C)c(F)c1 [Example 4-50] | 10 to 100 nM | 100 to 1000 nM | ≥ 1.5 | ≥ 1.5 |
| Cc1c(=O)n(C)c(Nc2ccc(I)cc2F)c2c(=O)n(C3CC3)c(=O)n(-c3cccc(NC(=O)c4c[nH]cn4)c3)c12 [Example 4-73] | < 10 nM | 10 to 100 nM | ≥ 1.5 | ≥ 1.5 |
| CC(=O)Nc1ccc(-n2c(=O)n(C3CC3)c(=O)c3c(Nc4ccc(I)cc4F)n(C)c(=O)c(C)c32)cc1 [Example 4-66] | 10 to 100 nM | 100 to 1000 nM | ≥ 1.5 | ≥ 1.5 |
| Cc1c(=O)n(C)c(Nc2ccc(I)cc2F)c2c(=O)n(C3CC3)c(=O)n(-c3cccc(NS(=O)(=O)N4CCCCC4)c3)c12 [Example 4-59] | < 10 nM | 10 to 100 nM | ≥ 1.5 | ≥ 1.5 |
| CCS(=O)(=O)Nc1cccc(-n2c(=O)n(C3CC3)c(=O)c3c(Nc4ccc(I)cc4F)n(C)c(=O)c(C)c32)c1 [Example 4-2] | < 10 nM | < 10 nM | ≥ 1.5 | ≥ 1.5 |
| Cc1c(=O)n(C)c(Nc2ccc(I)cc2F)c2c(=O)n(C3CC3)c(=O)n(-c3cccc(N4CCN(C)CC4=O)c3)c12 [Example 4-122] | < 10 nM | 10 to 100 nM | ≥ 1.5 | ≥ 1.5 |
| CON(C)C(=O)Nc1cccc(-n2c(=O)n(C3CC3)c(=O)c3c(Nc4ccc(I)cc4F)n(C)c(=O)c(C)c32)c1 [Example 4-80] | < 10 nM | 10 to 100 nM | ≥ 1.5 | ≥ 1.5 |
| Cc1c(=O)n(C)c(Nc2ccc(I)cc2F)c2c(=O)n(C3CC3)c(=O)n(-c3cccc(N4CCOC4=O)c3)c12 [Example 4-125] | < 10 nM | < 10 nM | ≥ 1.5 | ≥ 1.5 |
| CNC(=O)c1ccc(-n2c(=O)n(C3CC3)c(=O)c3c(Nc4ccc(I)cc4F)n(C)c(=O)c(C)c32)cc1 [Example 4-92] | < 10 nM | 10 to 100 nM | ≥ 1.5 | ≥ 1.5 |
| Cc1c(=O)n(C)c(Nc2ccc(I)cc2F)c2c(=O)n(C3CC3)c(=O)n(-c3ccc(C(N)=O)cc3)c12 [Example 4-91] | < 10 nM | 10 to 100 nM | ≥ 1.5 | ≥ 1.5 |
| Cc1c(=O)n(C)c(Nc2ccc(I)cc2F)c2c(=O)n(C3CC3)c(=O)n(-c3cccc(NC(N)=O)c3)c12 [Example 4-81] | < 10 nM | 10 to 100 nM | ≥ 1.5 | ≥ 1.5 |
| Cc1c(=O)n(C)c(Nc2ccc(I)cc2F)c2c(=O)n(C3CC3)c(=O)n(-c3cccc(N4CCNS4(=O)=O)c3)c12 [Example 4-114] | < 10 nM | 10 to 100 nM | ≥ 1.5 | ≥ 1.5 |
| C#Cc1ccc(Nc2c3c(=O)n(C)c(=O)n(-c4cccc(NC(C)=O)c4)c3c(C)c(=O)n2C)c(F)c1 [Example 4-48] | < 10 nM | 10 to 100 nM | ≥ 1.5 | ≥ 1.5 |

Further lines, with some results ahead:

| IC50 [3] | IC50 [4] | Compound | fold induction at 0.1 µM [1] | fold induction at 0.1 µM [2] |
| --- | --- | --- | --- | --- |
| 10 to 100 nM | 100 to 1000 nM | Cn1c(=O)cc(Nc2ccc(C3CC3)cc2F)c2c(=O)n(C3CC3)c(=O)n(-c3ccccc3)c21 [Example 1-265] | ≥ 1.5 | ≥ 1.5 |
| < 10 nM | < 10 nM | CC(C)S(=O)(=O)Nc1cccc(-n2c(=O)n(C3CC3)c(=O)c3c(Nc4ccc(I)cc4F)cc(=O)n(C)c32)c1 [Example 1-319] | ≥ 1.5 | ≥ 1.5 |
| 10 to 100 nM | 10 to 100 nM | CCc1ccc(Nc2cc(=O)n(C)c3c2c(=O)n(C2CC2)c(=O)n3-c2cccc(NS(=O)(=O)CC)c2)c(F)c1 [Example 1-268] | ≥ 1.5 | ≥ 1.5 |
| < 10 nM | 100 to 1000 nM | CN(C)S(=O)(=O)c1cccc(-n2c(=O)n(C3CC3)c(=O)c3c(Nc4ccc(Br)cc4F)cc(=O)n(C)c32)c1 [Example 1-224] | ≥ 1.5 | ≥ 1.5 |
| 10 to 100 nM | 10 to 100 nM | CC(C)S(=O)(=O)Nc1cccc(-n2c(=O)n(C3CC3)c(=O)c3c(Nc4ccc(Br)cc4F)cc(=O)n(C)c32)c1 [Example 1-272] | ≥ 1.5 | ≥ 1.5 |
| < 10 nM | 10 to 100 nM | C=C(C)c1ccc(Nc2c3c(=O)n(C4CC4)c(=O)n(-c4cccc(NC(C)=O)c4)c3c(C)c(=O)n2C)c(F)c1 [Example 4-97] | ≥ 1.5 | ≥ 1.5 |
| 10 to 100 nM | 100 to 1000 nM | CCc1ccc(Nc2cc(=O)n(C)c3c2c(=O)n(C2CC2)c(=O)n3-c2ccccc2)c(F)c1 [Example 1-242] | ≥ 1.5 | ≥ 1.5 |
| < 10 nM | 10 to 100 nM | Cc1c(=O)n(C)c(Nc2ccc(I)cc2F)c2c(=O)n(C3CC3)c(=O)n(-c3cccc(S(N)(=O)=O)c3)c12 [Example 4-127] | ≥ 1.5 | ≥ 1.5 |
| < 10 nM | 10 to 100 nM | Cc1cc(I)ccc1Nc1cc(=O)n(C)c2c1c(=O)n(C1CC1)c(=O)n2-c1cccc(NS(C)(=O)=O)c1 [Example 1-340] | ≥ 1.5 | ≥ 1.5 |
| 10 to 100 nM | 100 to 1000 nM | Cc1cc(N(C)C)ccc1Nc1cc(=O)n(C)c2c1c(=O)n(C1CC1)c(=O)n2-c1ccccc1 [Example 1-112] | ≥ 1.5 | ≥ 1.5 |
| 10 to 100 nM | 10 to 100 nM | CSc1ccc(Nc2cc(=O)n(C)c3c2c(=O)n(C2CC2)c(=O)n3-c2ccccc2)c(F)c1 [Example 1-285] | ≥ 1.5 | ≥ 1.5 |
| 10 to 100 nM | 10 to 100 nM | C=Cc1ccc(Nc2cc(=O)n(C)c3c2c(=O)n(C2CC2)c(=O)n3-c2ccccc2)c(F)c1 [Example 1-240] | ≥ 1.5 | ≥ 1.5 |
| 10 to 100 nM | 100 to 1000 nM | Cn1c(=O)c2c(Nc3ccc(Br)cc3F)cc(=O)n(C)c2n(-c2ccccc2)c1=O [Example 1-185] | ≥ 1.5 | ≥ 1.5 |

Source: patent publication US20180273531A1, “PYRIMIDINE COMPOUND AND MEDICAL USE THEREOF” (Japan Tobacco Inc., priority 2004, published 2018)
